Test system: NFkB
Test: NFkB reporter cell line (HT29) stimulated with TNFalpha or gram negative bacterium, in conditioned media
Assay type: cell-based
Settings: HT29 NFkB reporter cells; cell culture media fermented with Bifidobacterium longum subsp infantis and the substance; stimulation with TNFalpha or S. typhymurium
Protocol: HT29 cells harbouring an expression plasmid with the NFkB promoter controlling an alkaline phosphatase were treated with different media and challenged with the proinflammatory TNFalpha or a gram negative bacterium such as Salmonella typhimurium. Treatments were cell culture media fermented with Bifidobacterium longum subsp infantis and (i) lactose or (ii) Lacto-N-tetraose (LNT).
The cells harbored an expression plasmid with the NF-κB promoter controlling an alkaline phosphatase so that stimulation by TNF-α or a gram negative bacterium would be indicated by fluorescence generated by interaction of the alkaline phosphatase with a fluorogenic substrate. […] This indicates LNT to exert a strong anti-inflammatory effect. Conditioned media with LNT lead to higher resistance of the cells upon proinflammatory TNFalpha or a gram negative bacterial stimulation. Intestinal epithelia cells in media conditioned by LNT (lacto-N-tetraose) and Bifidobacterium fermentation products are more resistant to proinflammatory stimulation by TNFalpha as compared to cells in a control medium conditioned by lactose and Bifidobacterium fermentation products.

Compound | activation of the inflammation marker nuclear factor kappa B (NFkB)
OC[C@H]1O[C@@H](O[C@H]2[C@H](O)[C@@H](O)C(O)O[C@@H]2CO)[C@H](O)[C@@H](O)[C@H]1O (some centres unmarked) [lactose] | very strong stimulation
CC(=O)N[C@H]1[C@H](O[C@H]2[C@@H](O)[C@@H](CO)O[C@@H](O[C@H]3[C@H](O)[C@@H](O)C(O)O[C@@H]3CO)[C@@H]2O)O[C@H](CO)[C@@H](O)[C@@H]1O[C@@H]1O[C@H](CO)[C@H](O)[C@H](O)[C@H]1O (some centres unmarked) [LNT, lacto-N-tetraose] | no stimulation

— patent US20220008444A1, “COMPOSITIONS FOR USE IN THE PREVENTION OR TREATMENT OF NECROTIZING ENTEROCOLITIS IN INFANTS AND YOUNG CHILDREN” (SOCIÉTÉ DES PRODUITS NESTLÉ S.A., priority 2013, published 2022)
